The source of these data is patent US11186603B2, “Heparan sulfate glycomimetic compounds and their pharmaceutical and cosmeceutical uses” (VICTORIA LINK LIMITED, priority 2017, dated 2021).

For assay [1], the system named is GM03123 (NPC) fibroblast cell line. The assay can be described thus: NPC cholesterol activity: filipin staining, LSO ratio. The assay is classed as cell-based, human. Particulars: for LSO %: GM03123 (NPC), 48 hours. The source says:
(§1) Fibroblast cell lines derived from Alzheimer and Niemann-Pick Type C (NPC) patients and healthy controls were obtained from the […] (Camden, N.J., USA). Cell line GM03123 was derived from a NPC patient with two heterozygous mutations in the NPC1 gene. Cell line GM09503 was used as a healthy control for the NPC cell line. Cell line ND41001 was derived from a patient carrying a Presenilin 1 mutation with familial (early onset) Alzheimer's disease (AD). Cell line ND38530 was used as a healthy control for the AD cell line. Further details of the cell lines are available at the Cornell Cell Repository website (https://catalog.coriell.org/).
(§2) Cell culture work was carried out in sterile conditions in an Email Air Handling Class II Biological Safety Cabinet (AES Environmental Pty LTD, Australia). All cell lines were cultured in DMEM (10313-021, Life Technologies New Zealand) supplemented with 10% fetal calf serum (Thermo Fisher Scientific New Zealand), 1× GlutaMAX™ Supplement (stabilised L-glutamine, Gibco Life Technologies New Zealand), 100 units/mL penicillin and 100 units/mL streptomycin (Life Technologies New Zealand). Cell lines were maintained in or 75 cm^2 flasks (Corning, Invitro Technologies New Zealand) in a humidified incubator (Sanyo Electric Co. Ltd, Japan) at 37° C. and 5% CO2. Experimental cultures were carried out in the same media omitting the antibiotics to avoid any potential interaction with the compound being tested.
(§3) For experiments, cells were seeded at a density of 1.25×10^3 cells/mL in black, 96 well plates (Cell-carrier, Perkin Elmer, Scimed New Zealand) in a volume of 100 μL media and grown for 24 hours before treating. The media was then replaced with fresh media supplemented with the required treatment. Cell lines GM03123 and ND41001 were either left untreated, or treated with either 10 μM or 100 μM of the heparan sulphate compound dissolved in sterile deionised water (dH20), 10 μM suberoylanilide hydroxamic acid (SAHA) dissolved in DMSO, or 0.1% DMSO. The healthy control cell lines GM09503 and ND38530 were left untreated or treated with U18666A dissolved in sterile dH20 at a final concentration of 1 μg/mL. U18666A causes cholesterol accumulation in the cell and is therefore a positive control for the filipin stain. Cells were then grown for 48 hours.
(§4) Before fixing, cells were washed three times with 1× phosphate buffered saline (PBS). From this point all treatments and washes were undertaken on a rotating table at 45 revs per minute. Cells were fixed with 1.5% paraformaldehyde (PFA) in 1×PBS (Thermo Fisher Scientific New Zealand) for 20 minutes. Cells were then washed with 1×PBS for four minutes. This was repeated twice. The cells were then stained for 2 hours with 50 μg/mL Filipin dye (Filipin complex from Streptomyces filipinensis, Sigma Aldrich, Australia) protected from the light. With minimal light exposure, the cells were washed with 1×PBS for four minutes and this was repeated twice. Cells were left in 1×PBS for confocal microscopy. The filipin stained cells were imaged using a Perkin Elmer Opera™ high-throughput spinning disk confocal microscope using 405 nm laser and 20× water immersion objective. Perkin Elmer Acapella™ software was used for image analysis. In NPC cells cholesterol accumulates in organelles with the characteristics of late endosomes or early lysosomes. These can be described as lysosome-like storage organelles (LSO). Analysis of free cholesterol levels in the cells was carried out using a method designed for high throughput confocal images described by Pipalia et al., Automated microscopy screening for compounds that partially revert cholesterol accumulation in Niemann-Pick C cells, J. Lipid Res., 2006, 47(2): 284-301. A low fluorescence threshold was chosen which identified the total area occupied by cells and another higher threshold was chosen to determine the areas of bright filipin staining of cholesterol within the cell. […]

For assay [2], the system named is ND41001 (AD) fibroblast cell line. The description is as above. The assay is classed as cell-based, human. To be noted: 48 hours.
From the text: as §1, §2, §3, §4

For the compound `O=C(CCCCCCCNC(=O)CCOCC(COCCC(=O)NCCCCCCCC(=O)NCCOCCOCCOCCC(=O)NCCCCCCOC1OC(COS(=O)(=O)[O-])C(OC2OC(COS(=O)(=O)[O-])C(OS(=O)(=O)[O-])C(OS(=O)(=O)[O-])C2OS(=O)(=O)[O-])C(OS(=O)(=O)[O-])C1OS(=O)(=O)[O-])(COCCC(=O)NCCCCCCCC(=O)NCCOCCOCCOCCC(=O)NCCCCCCOC1OC(COS(=O)(=O)[O-])C(OC2OC(COS(=O)(=O)[O-])C(OS(=O)(=O)[O-])C(OS(=O)(=O)[O-])C2OS(=O)(=O)[O-])C(OS(=O)(=O)[O-])C1OS(=O)(=O)[O-])COCCC(=O)NCCCCCCCC(=O)NCCOCCOCCOCCC(=O)NCCCCCCOC1OC(COS(=O)(=O)[O-])C(OC2OC(COS(=O)(=O)[O-])C(OS(=O)(=O)[O-])C(OS(=O)(=O)[O-])C2OS(=O)(=O)[O-])C(OS(=O)(=O)[O-])C1OS(=O)(=O)[O-])NCCOCCOCCOCCC(=O)NCCCCCCOC1OC(COS(=O)(=O)[O-])C(OC2OC(COS(=O)(=O)[O-])C(OS(=O)(=O)[O-])C(OS(=O)(=O)[O-])C2OS(=O)(=O)[O-])C(OS(=O)(=O)[O-])C1OS(=O)(=O)[O-].[Na+].[Na+].[Na+].[Na+].[Na+].[Na+].[Na+].[Na+].[Na+].[Na+].[Na+].[Na+].[Na+].[Na+].[Na+].[Na+].[Na+].[Na+].[Na+].[Na+].[Na+].[Na+].[Na+].[Na+].[Na+].[Na+].[Na+].[Na+]` (centres unmarked) [Compound 25a], the LSO % is 76.1% in assay [1] (10 μM, LSO ratio treated/untreated x 100); 64.2% in assay [1] (100 μM); 60.1% in assay [2] (10 μM); 67.9% in assay [2] (100 μM). The “effect on filipin (cholesterol) fluorescence (in words)” value in assay [1] (fibroblast cells derived from Niemann-Pick type C and Alzheimer's disease patients) is “positive effect on filipin (cholesterol) fluorescence”.
